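Assay format: 96-well plates, 48-hour exposure. GI50 = concentration required for 50% inhibition of growth.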 Calls of active or inactive are those of the source. Rule as the data show it: active = GI50 up to about 1.1 µM and inactive = higher.
Experiments:
Assay in all cases: DTP human tumour cell line panel, 48 h
TK-10 = system: TK-10
U-251 = system: U-251
NCI-H522 = system: NCI-H522
SW-620 = system: SW-620
NCI/ADR-RES = system: NCI/ADR-RES
PC-3 = system: PC-3
SR = system: SR
786-0 = system: 786-0
A498 = system: A498
A549 = system: A549
Hs-578T = system: Hs-578T
HOP-92 = system: HOP-92
CAKI-1 = system: CAKI-1
NCI-H23 = system: NCI-H23
UO-31 = system: UO-31
UACC-62 = system: UACC-62
HCC 2998 = system: HCC 2998
T47D = system: T47D
K562 = system: K562
IGROV-1 = system: IGROV-1
Malme-3M = system: Malme-3M
COLO 205 = system: COLO 205
HCT-15 = system: HCT-15
MDA-MB-435 = system: MDA-MB-435
MDA-MB-231 = system: MDA-MB-231
HT-29 = system: HT-29
SF-539 = system: SF-539
HL-60 = system: HL-60
SK-MEL-28 = system: SK-MEL-28
CCRF-CEM = system: CCRF-CEM
SK-OV-3 = system: SK-OV-3
SNB-19 = system: SNB-19
NCI-H460 = system: NCI-H460
MCF7 = system: MCF7
SN12C = system: SN12C
OVCAR-5 = system: OVCAR-5
RPMI-8226 = system: RPMI-8226
M14 = system: M14
SK-MEL-2 = system: SK-MEL-2
MOLT-4 = system: MOLT-4
EKVX = system: EKVX
HOP-62 = system: HOP-62
BT-549 = system: BT-549
ACHN = system: ACHN
OVCAR-8 = system: OVCAR-8
KM12 = system: KM12
SNB-75 = system: SNB-75
SF-295 = system: SF-295
SF-268 = system: SF-268
NCI-H226 = system: NCI-H226
MDA-N = system: MDA-N
OVCAR-4 = system: OVCAR-4
LOX IMVI = system: LOX IMVI
HCT-116 = system: HCT-116

Measured: GI50

Oc1cc(-c2cccc(C(F)(F)F)c2)nc2cc3c(cc12)OCO3
1.38 µM: HCT-15
active: NCI-H522 0.536 µM | NCI/ADR-RES 1.04 µM | PC-3 0.365 µM | SR 0.55 µM | K562 0.26 µM | Malme-3M 0.518 µM | MDA-MB-435 0.935 µM | SF-539 1.04 µM | HL-60 0.246 µM | CCRF-CEM 0.277 µM | SNB-75 1.06 µM
inactive: TK-10 > 50 µM | U-251 2.55 µM | SW-620 2.21 µM | 786-0 2.05 µM | A498 8.87 µM | A549 3.97 µM | Hs-578T 1.66 µM | HOP-92 2.24 µM | CAKI-1 10.9 µM | NCI-H23 1.77 µM | UO-31 8.89 µM | UACC-62 1.51 µM | HCC 2998 3.44 µM | T47D > 50 µM | IGROV-1 3.29 µM | COLO 205 8.93 µM | MDA-MB-231 1.87 µM | HT-29 13.7 µM | SK-MEL-28 2.87 µM | SK-OV-3 2.26 µM | SNB-19 2.77 µM | NCI-H460 1.39 µM | MCF7 2.23 µM | SN12C 8.75 µM | OVCAR-5 1.49 µM | RPMI-8226 1.77 µM | M14 1.76 µM | SK-MEL-2 1.28 µM | MOLT-4 2.82 µM | EKVX 1.5 µM | HOP-62 1.83 µM | BT-549 1.24 µM | ACHN 25.7 µM | OVCAR-8 2.34 µM | KM12 2.12 µM

COc1ccc2c3c(c4cc(OC)c(OC)cc4c2c1)CN1CCC[C@H]1[C@@H]3O [TYLOPHORININE]
active: NCI-H522 0.29 µM | NCI/ADR-RES 0.36 µM | SR < 0.0443 µM | A498 < 0.0494 µM | Hs-578T < 0.0441 µM | SF-295 0.05 µM | UACC-62 < 0.0482 µM | T47D < 0.0404 µM | SF-268 < 0.0453 µM | K562 0.0422 µM | IGROV-1 < 0.0508 µM | Malme-3M 0.249 µM | COLO 205 0.039 µM | NCI-H226 0.27 µM | MDA-MB-231 < 0.0489 µM | HT-29 < 0.0289 µM | SF-539 0.253 µM | CCRF-CEM < 0.0359 µM | MDA-N < 0.0404 µM | SK-OV-3 0.0733 µM | OVCAR-4 0.224 µM | LOX IMVI < 0.01 µM | SNB-19 < 0.01 µM | NCI-H460 < 0.0474 µM | SN12C < 0.0201 µM | HCT-116 < 0.0445 µM | RPMI-8226 0.0676 µM | MOLT-4 < 0.0318 µM | EKVX < 0.01 µM | BT-549 0.493 µM | KM12 < 0.0371 µM
